From US20230203029A1 (priority 2020, published 2023) come the findings set out here.

The target in test [1] is T1, human MERTK cytoplasmic domain (Homo sapiens, UniProt Q12866).
T1 construct: human MERTK cytoplasmic domain (Carna Biosciences 08-108); purchased Carna Biosciences 08-108
Briefly: biochemical. Particulars: 30 uM ATP; read-out: Assay 1a Mer IC50 30 uM ATP. As to the method: Assay 1a—MERTK HTRF KinEASE-TK Assay
The enzymatic reaction was carried out for 30 min at room temperature. 10 μL TK Antibody-Cryptate/Streptavidin-XL665 (Cisbio 610SAXLG) was then added for 60 min, including EDTA containing detection buffer (Cisbio 62SDBRDF) to stop the reaction.

Test [2] addresses T2, Ba/F3 Pro B-cell line expressing TEL-human MERTK fusion domain (Homo sapiens, UniProt Q12866).
T2 sequence (Q12866 587-858 limits assumed): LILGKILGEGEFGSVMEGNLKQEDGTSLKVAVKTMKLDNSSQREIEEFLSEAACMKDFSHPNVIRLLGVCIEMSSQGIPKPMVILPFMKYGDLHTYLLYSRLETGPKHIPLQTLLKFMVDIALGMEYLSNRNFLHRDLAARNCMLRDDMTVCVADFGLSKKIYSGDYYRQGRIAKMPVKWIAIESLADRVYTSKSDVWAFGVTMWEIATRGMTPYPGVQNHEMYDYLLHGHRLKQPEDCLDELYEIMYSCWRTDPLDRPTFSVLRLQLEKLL
It counts as cell-based. The note with it: cell survival, 48 h, CellTiter-Glo; read-out: TEL-MERTK Ba/F3 IC50. As for the experimental part:
(§1) Assay 5—Ba/F3 Cell Survival Assays.
(§2) The inhibitory potencies of compounds were assessed in a Ba/F3 cell survival assay, using the Ba/F3 Pro B-cell line, recombinantly expressing a BCR-human AXL kinase domain fusion protein (pACD320/AXL, Advanced Cellular Dynamics Inc), TEL-human MERTK fusion domain (pACD1000/MERTK, Advanced Cellular Dynamics Inc), TEL-human Tyro3 fusion domain (pACD1000/TYRO3, Advanced Cellular Dynamics Inc), or control TEL-none (ACD320, Advanced Cellular Dynamics Inc) BRC-none constructs (ACD1000, Advanced Cellular Dynamics Inc). 10 ng/mL recombinant murine IL3 (R&D, 403-ML-010) was included in the media when propagating negative control TEL-none or BCR-none lines only. […] The final assay DMSO concentration was 0.25%. Compound incubations were conducted for 48 h at 37° C./5% CO2, after which cell plate was equilibrated at room temperature for 20 minutes prior to assessing viability. 15 μl of Promega CellTiter-Glo reagent (G7572) was added to each well for 2 min on an orbital shaker to induce cell lysis.
The plate was then equilibrated for 5 min at room temperature and luminescence read on a BMG Pherastar FSX using the LUM plus optic module. […] Competition curves were then fit to a 4 parameter logistic equation including a variable slope factor to determine the IC50 (compound concentration causing a half-maximal inhibition of cell survival).
Background: In ATP-based viability assays light output follows the ATP content of the culture.

The target in test [3] is T3, human AXL cytoplasmic domain (Homo sapiens, UniProt P30530).
T3 construct: human AXL cytoplasmic domain (Thermo Fisher A31515); purchased Thermo Fisher A31515
T3 sequence (P30530 473-894 limits assumed): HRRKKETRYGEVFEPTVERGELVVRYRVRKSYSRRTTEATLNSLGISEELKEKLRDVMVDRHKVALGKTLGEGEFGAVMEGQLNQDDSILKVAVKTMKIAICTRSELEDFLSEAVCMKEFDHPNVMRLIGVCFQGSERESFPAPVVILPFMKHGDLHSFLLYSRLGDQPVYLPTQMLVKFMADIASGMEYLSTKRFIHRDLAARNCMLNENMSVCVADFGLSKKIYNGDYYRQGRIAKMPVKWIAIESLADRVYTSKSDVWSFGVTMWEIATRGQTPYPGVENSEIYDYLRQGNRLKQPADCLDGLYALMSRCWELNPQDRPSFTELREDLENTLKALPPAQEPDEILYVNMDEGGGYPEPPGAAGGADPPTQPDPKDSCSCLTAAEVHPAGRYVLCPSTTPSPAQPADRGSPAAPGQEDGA
The test is described as follows: Assay 1b AXL HTRF KinEASE-TK assay. It counts as biochemical. As to the method: Assay 1b—AXL HTRF KinEASE-TK Assay
Compound inhibition of human AXL cytoplasmic domain (Thermo Fisher A31515) enzymatic activity was tested via the HTRF KinEASE-tyrosine kinase (TK) kit (Cisbio 62TK0PEC). Experiments were performed in 20 μl enzymatic buffer (Cisbio 62EZBFDD) supplemented with 5 mM MgCl2, 1 mM MnCl2, 1 mM DTT, 50 nM SEB (Cisbio, 61SEBALB), with 5 nM of AXL and the test compounds of interest. […] The enzymatic reaction was carried out for 30 min at room temperature. 10 μL TK Antibody-Cryptate/Streptavidin-XL665 (Cisbio 610SAXLG) was then added for 60 min, including EDTA containing detection buffer (Cisbio 62SDBRDF) to stop the reaction. The plate was read on a BMG Pherastar FSX using a HTRF 337/620/665 optical module to excite the terbium donor at 337 nm, and record donor emission at 620 nm and acceptor fluorophore emission at 665 nm. From this the FRET ratio (acceptor 665 nm/donor 620 nm) for each data point was calculated. […] Competition curves were then fit to a 4 parameter logistic equation including a variable slope factor to determine the IC50 (compound concentration that inhibits 50% of AXL activity).
A general note: Time-resolved FRET reads energy transfer from a long-lived donor to a nearby acceptor.

Test [4] addresses T4, Ba/F3 Pro B-cell line expressing TEL-human Tyro3 fusion domain (Homo sapiens, UniProt Q06418).
T4 sequence (Q06418 518-790 limits assumed): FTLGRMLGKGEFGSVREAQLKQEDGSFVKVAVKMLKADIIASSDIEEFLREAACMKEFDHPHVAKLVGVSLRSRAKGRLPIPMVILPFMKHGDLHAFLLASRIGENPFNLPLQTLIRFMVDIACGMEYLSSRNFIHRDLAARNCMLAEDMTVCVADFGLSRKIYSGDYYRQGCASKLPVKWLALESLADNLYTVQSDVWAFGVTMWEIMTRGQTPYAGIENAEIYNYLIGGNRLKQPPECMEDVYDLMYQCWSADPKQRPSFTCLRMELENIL
It counts as cell-based. Particulars: cell survival, 48 h, CellTiter-Glo. As to the method: as §1
as §2, with “only. Cells were maintained in RMPI 1640 (Corning 15-040-CV) culture media containing 10% heat inactivated semi-synthetic FBS (RMBIO FGR-BBT), 2 mM L-Glutamine (Sigma, G7513), 100 IU/mL Penicillin-[…] Streptomycin (Sigma, P4333), and 500 ng/mL Puromycin (Sigma, P8833). Experiments were performed in 50 μl growth media, including the test compounds of interest, and dispensing 5000 cells/well in logarithmic-phase growth into a 384 well white Optiplate (Perkin Elmer 6007299).” for “only.”
The plate was then equilibrated for 5 min at room temperature and luminescence read on a BMG Pherastar FSX using the LUM plus optic module. Data were normalised to measurements in the absence of competing compound (0% inhibition). Competition curves were then fit to a 4 parameter logistic equation including a variable slope factor to determine the IC50 (compound concentration causing a half-maximal inhibition of cell survival).

The structures appear in SMILES notation. pIC50: −log10 of the molar value.

T1 sequence (Q12866 527-999): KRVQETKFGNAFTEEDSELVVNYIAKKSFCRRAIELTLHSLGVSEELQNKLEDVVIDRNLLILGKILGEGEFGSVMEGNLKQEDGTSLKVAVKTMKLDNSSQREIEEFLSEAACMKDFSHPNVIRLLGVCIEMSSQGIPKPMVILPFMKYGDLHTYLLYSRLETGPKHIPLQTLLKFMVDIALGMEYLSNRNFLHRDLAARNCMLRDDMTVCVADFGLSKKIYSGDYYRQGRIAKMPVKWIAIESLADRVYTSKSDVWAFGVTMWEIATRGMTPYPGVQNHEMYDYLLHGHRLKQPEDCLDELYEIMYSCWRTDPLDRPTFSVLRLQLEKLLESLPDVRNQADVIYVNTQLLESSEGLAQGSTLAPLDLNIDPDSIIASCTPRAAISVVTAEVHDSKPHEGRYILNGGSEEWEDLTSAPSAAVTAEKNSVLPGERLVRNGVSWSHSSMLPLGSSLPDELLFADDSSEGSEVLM

Turning to `CN1CCC(C(=O)Nc2cc3c(Oc4ccc(NC(=O)c5cccn(-c6ccc(F)cc6)c5=O)nc4)ccnc3cn2)C1` (stereo not drawn) [Example 18, 1-(4-Fluorophenyl)-N-[5-[[6-[(1-methylpyrrolidine-3-carbonyl)amino]-1,7-naphthyridin-4-yl]oxy]-2-pyridyl]-2-oxo-pyridine-3-carboxamide], the pIC50 in test [1] is 8.70; in test [2], 8.52; in test [3] it was 7.47; in test [4], 6.78.

`CC(C)n1cc(C(=O)Nc2ccc(Nc3ccnc4cnc(C(=O)NOCCO)cc34)cc2)c(=O)n(-c2ccc(F)cc2)c1=O` [Example 7, 4-[4-[[3-(4-fluorophenyl)-1-isopropyl-2,4-dioxo-pyrimidine-5-carbonyl]amino]anilino]-N-(2-hydroxyethoxy)-1,7-naphthyridine-6-carboxamide]: the pIC50 in test [1] is 6.41.

For `Cc1c(C(=O)Nc2ccc(Oc3ccnc4cnc(C(=O)NC5CCN(C)CC5)cc34)cc2)c(=O)n(-c2ccccc2)n1CC(C)(C)O` [Example 8.4, 4-[4-[[1-(2-hydroxy-2-methyl-propyl)-5-methyl-3-oxo-2-phenyl-pyrazole-4-carbonyl]amino]phenoxy]-N-(1-methyl-4-piperidyl)-1,7-naphthyridine-6-carboxamide], in test [1], the pIC50 is 6.61.

Turning to `O=C(Nc1ccc(Oc2ccnc3cnc(N4CCNCC4)cc23)cc1)c1c[nH]cc(-c2ccc(F)cc2)c1=O` [Example 12.7, 5-(4-fluorophenyl)-4-oxo-N-[4-[(6-piperazin-1-yl-1,7-naphthyridin-4-yl)oxy]phenyl]-1H-pyridine-3-carboxamide], the figures for the pIC50 in test [1] and in test [3] were 7.80 and 7.44, respectively.

Consider `O=C(Nc1ccc(Oc2ccnc3cnc(N4CCNCC4)cc23)cc1)c1cccn(-c2ccccn2)c1=O` [Example 12.1, 2-oxo-N-[4-[(6-piperazin-1-yl-1,7-naphthyridin-4-yl)oxy]phenyl]-1-(2-pyridyl)pyridine-3-carboxamide], for which, in test [1], the pIC50 is 6.14.

As to `CC(C)n1cc(C(=O)Nc2ccc(Oc3ccnc4cnc(C5CCN(C)CC5)cc34)cn2)c(=O)n(-c2ccc(F)cc2)c1=O` [Example 23.1, 3-(4-fluorophenyl)-1-isopropyl-N-[5-[[6-(1-methyl-4-piperidyl)-1,7-naphthyridin-4-yl]oxy]-2-pyridyl]-2,4-dioxo-pyrimidine-5-carboxamide], the results for the pIC50 in test [1], in test [2] and in test [4] were 7.89, 7.82 and 6.25, respectively.

Consider `Cc1c(C(=O)Nc2ccc(Oc3ccnc4cnc(C(=O)NC5CCN(C)CC5)cc34)cc2)c(=O)n(-c2ccccc2)n1C` [Example 8.3, 4-[4-[(1,5-Dimethyl-3-oxo-2-phenyl-pyrazole-4-carbonyl)amino]phenoxy]-N-(1-methyl-4-piperidyl)-1,7-naphthyridine-6-carboxamide], for which the pIC50 in test [1] is 6.88.

`O=C(Nc1ccc(Nc2ccnc3cnc(C(=O)N4CCC4)cc23)cc1)c1cccn(-c2ccccc2)c1=O` [Example 5.4, N-[4-[[6-(azetidine-1-carbonyl)-1,7-naphthyridin-4-yl]amino]phenyl]-2-oxo-1-phenyl-pyridine-3-carboxamide]: the pIC50 in test [1] is 6.27.

As for `Cc1c(C(=O)Nc2ccc(Oc3ccnc4cnc(N5CCNCC5)cc34)cc2)c(=O)n(-c2ccccc2)n1C` [Example 12.8, 1,5-dimethyl-3-oxo-2-phenyl-N-[4-[(6-piperazin-1-yl-1,7-naphthyridin-4-yl)oxy]phenyl]pyrazole-4-carboxamide], in test [1], the pIC50 was 6.87.

For the molecule `CN1CCC(NC(=O)c2cc3c(Oc4cnc(NC(=O)c5cccn(-c6ccc(F)cc6)c5=O)nc4)ccnc3cn2)CC1` [Example 19, 4-[2-[[1-(4-Fluorophenyl)-2-oxo-pyridine-3-carbonyl]amino]pyrimidin-5-yl]oxy-N-(1-methyl-4-piperidyl)-1,7-naphthyridine-6-carboxamide], the pIC50 in test [1] was 6.86.

Turning to `CC(C)n1cc(C(=O)Nc2ccc(Nc3ccnc4cnc(C(=O)NCCN(C)C)cc34)cc2)c(=O)n(-c2ccc(F)cc2)c1=O` [Example 7.1, N-[2-(dimethylamino)ethyl]-4-[4-[[3-(4-fluorophenyl)-1-isopropyl-2,4-dioxo-pyrimidine-5-carbonyl]amino]anilino]-1,7-naphthyridine-6-carboxamide], the pIC50 in test [1] was 7.27.

In the case of `CN1CCC(NC(=O)c2cc3c(Oc4ccc(NC(=O)c5cccn(-c6ccccn6)c5=O)cc4)ccnc3cn2)CC1` [Example 8, N-(1-methyl-4-piperidyl)-4-[4-[[2-oxo-1-(2-pyridyl)pyridine-3-carbonyl]amino]phenoxy]-1,7-naphthyridine-6-carboxamide], the pIC50 in test [1] was 6.81.
